Test results reported in PubChem BioAssay AID1963429 (Molecular Pharmacology Branch, DTP, NCI, 2024).
Several values for one entry are separate records, joined by “and”; a condition that tells them apart may be missing. Identical values can stand only once. Each block holds one compound with its values, some of them ahead of it.

Test system: 126254-015-R-J1-PDC complex spheroid growth, % test/control
Experiment: Anticancer human tumor 126254-015-R-J1-PDC patient-derived soft tissue sarcoma cell line growth inhibition [Asc]
Conditions: for viability, T/C: stronger effect = lower value
How it was run: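 Concentration series start at each agent's clinical Cmax, or at 10 microM when none is established, and drop in half-log steps; agents are applied alone or together to complex spheroids built with HUVEC and hMSC.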

[1] = curve of first compound, second compound 0.03 µM
[2] = curve of first compound, second compound 0.0949 µM
[3] = curve of first compound, second compound 0.3 µM
[4] = curve of first compound, second compound 0.949 µM
[5] = curve of first compound, second compound 3 µM
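Also: spheroids exposed to compound for seven days.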
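For viability, T/C in this document: 100% = DMSO vehicle control wells.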

- IC50 [1]: 2430 nM
- IC50 [2]: 2640 nM
- IC50 [3]: 2730 nM
- IC50 [4]: 2740 nM
- IC50 [5]: 2920 nM
SMILES: C=C(F)C(=O)N1CCN(c2nc(OCC3CCCN3C)nc3c2CCN(c2cccc4cccc(Cl)c24)C3)CC1CC#N (centres undefined) + CCN1C(C(=O)NC23CCC(C(=O)O)(CC2)CC3)C(c2cccc(Cl)c2F)C2(C(=O)Nc3cc(Cl)ccc32)C12CCCCC2
- viability, T/C (second compound 0.03 µM, first compound 0.0316 µM): 105%
- viability, T/C (second compound 0.03 µM, first compound 0.1 µM): 103%
- viability, T/C (second compound 0.03 µM, first compound 0.316 µM): 102%
- viability, T/C (second compound 0.03 µM, first compound 1 µM): 95.9%
- viability, T/C (second compound 0.03 µM, first compound 3.16 µM): 36.5%
- viability, T/C (second compound 0.03 µM, first compound 10 µM): 0.16%
- viability, T/C (second compound 0.0949 µM, first compound 0.0316 µM): 101%
- viability, T/C (second compound 0.0949 µM, first compound 0.1 µM): 104%
- viability, T/C (second compound 0.0949 µM, first compound 0.316 µM): 94.9%
- viability, T/C (second compound 0.0949 µM, first compound 1 µM): 93.8%
- viability, T/C (second compound 0.0949 µM, first compound 3.16 µM): 41.9%
- viability, T/C (second compound 0.0949 µM, first compound 10 µM): 0.16%
- viability, T/C (second compound 0.3 µM, first compound 0.0316 µM): 101%
- viability, T/C (second compound 0.3 µM, first compound 0.1 µM): 105%
- viability, T/C (second compound 0.3 µM, first compound 0.316 µM): 97.4%
- viability, T/C (second compound 0.3 µM, first compound 1 µM): 93.9%
- viability, T/C (second compound 0.3 µM, first compound 3.16 µM): 43.6%
- viability, T/C (second compound 0.3 µM, first compound 10 µM): 0.16%
- viability, T/C (second compound 0.949 µM, first compound 0.0316 µM): 107%
- viability, T/C (second compound 0.949 µM, first compound 0.1 µM): 123%
- viability, T/C (second compound 0.949 µM, first compound 0.316 µM): 100%
- viability, T/C (second compound 0.949 µM, first compound 1 µM): 101%
- viability, T/C (second compound 0.949 µM, first compound 3.16 µM): 42.7%
- viability, T/C (second compound 0.949 µM, first compound 10 µM): 0.17%
- viability, T/C (second compound 3 µM, first compound 0.0316 µM): 104%
- viability, T/C (second compound 3 µM, first compound 0.1 µM): 114%
- viability, T/C (second compound 3 µM, first compound 0.316 µM): 103%
- viability, T/C (second compound 3 µM, first compound 1 µM): 98.9%
- viability, T/C (second compound 3 µM, first compound 3.16 µM): 46.3%
- viability, T/C (second compound 3 µM, first compound 10 µM): 0.21%

- IC50 (curve of first compound, second compound 0.01 µM): 9050 nM
- IC50 (curve of first compound, second compound 0.0316 µM): 6180 nM
- IC50 (curve of first compound, second compound 0.1 µM): 2770 nM
- IC50 (curve of first compound, second compound 0.316 µM): 3610 nM
- IC50 (curve of first compound, second compound 1 µM): 1850 nM
SMILES: O=C(c1cc(Cc2n[nH]c(=O)c3ccccc23)ccc1F)N1CCN(C(=O)C2CC2)CC1 + CNC(C)C(=O)NC1CN(S(=O)(=O)c2cccc(S(=O)(=O)N3CCC4CCC(C(=O)NC(c5ccccc5)c5ccccc5)N4C(=O)C(NC(=O)C(C)NC)C3)c2)CCC2CCC(C(=O)NC(c3ccccc3)c3ccccc3)N2C1=O
- viability, T/C (second compound 0.01 µM, first compound 0.0316 µM): 97.3%
- viability, T/C (second compound 0.01 µM, first compound 0.1 µM): 89.8%
- viability, T/C (second compound 0.01 µM, first compound 0.316 µM): 94.5%
- viability, T/C (second compound 0.01 µM, first compound 1 µM): 82.8%
- viability, T/C (second compound 0.01 µM, first compound 3.16 µM): 77.6%
- viability, T/C (second compound 0.01 µM, first compound 10 µM): 47.1%
- viability, T/C (second compound 0.0316 µM, first compound 0.0316 µM): 85.1%
- viability, T/C (second compound 0.0316 µM, first compound 0.1 µM): 82.4%
- viability, T/C (second compound 0.0316 µM, first compound 0.316 µM): 78.2%
- viability, T/C (second compound 0.0316 µM, first compound 1 µM): 80.2%
- viability, T/C (second compound 0.0316 µM, first compound 3.16 µM): 55.1%
- viability, T/C (second compound 0.0316 µM, first compound 10 µM): 46.3%
- viability, T/C (second compound 0.1 µM, first compound 0.0316 µM): 66.2%
- viability, T/C (second compound 0.1 µM, first compound 0.1 µM): 77.8%
- viability, T/C (second compound 0.1 µM, first compound 0.316 µM): 75.4%
- viability, T/C (second compound 0.1 µM, first compound 1 µM): 59.6%
- viability, T/C (second compound 0.1 µM, first compound 3.16 µM): 49.8%
- viability, T/C (second compound 0.1 µM, first compound 10 µM): 27.4%
- viability, T/C (second compound 0.316 µM, first compound 0.0316 µM): 62.2%
- viability, T/C (second compound 0.316 µM, first compound 0.1 µM): 56.4%
- viability, T/C (second compound 0.316 µM, first compound 0.316 µM): 59.7%
- viability, T/C (second compound 0.316 µM, first compound 1 µM): 57.8%
- viability, T/C (second compound 0.316 µM, first compound 3.16 µM): 52.9%
- viability, T/C (second compound 0.316 µM, first compound 10 µM): 29%
- viability, T/C (second compound 1 µM, first compound 0.0316 µM): 54.7%
- viability, T/C (second compound 1 µM, first compound 0.1 µM): 62.2%
- viability, T/C (second compound 1 µM, first compound 0.316 µM): 61.4%
- viability, T/C (second compound 1 µM, first compound 1 µM): 54.9%
- viability, T/C (second compound 1 µM, first compound 3.16 µM): 44.9%
- viability, T/C (second compound 1 µM, first compound 10 µM): 22.2%

- IC50 (curve of compound): > 100 nM
SMILES: NC1CCC(NC2CC2c2ccccc2)CC1 (centres undefined)
- viability, T/C (compound 0.000316 µM): 96.7% and 95.9% and 95.3%
- viability, T/C (compound 0.001 µM): 87.1% and 102% and 107%
- viability, T/C (compound 0.00316 µM): 96.5% and 88.6% and 98%
- viability, T/C (compound 0.01 µM): 92.1% and 90.5% and 103%
- viability, T/C (compound 0.0316 µM): 90.3% and 85.1% and 100%
- viability, T/C (compound 0.1 µM): 84.9% and 93% and 96.2%

- IC50 (curve of compound): > 10000 nM
SMILES: C#Cc1c(F)ccc2cc(O)cc(-c3ncc4c(N5CC6CCC(C5)N6)nc(OCC56CCCN5CC(F)C6)nc4c3F)c12 (centres undefined)
- viability, T/C (compound 0.0316 µM): 97.4% and 92.6% and 97.8%
- viability, T/C (compound 0.1 µM): 92.8% and 89.8% and 108%
- viability, T/C (compound 0.316 µM): 100% and 97.5% and 103%
- viability, T/C (compound 1 µM): 94.1% and 97.4% and 93.6%
- viability, T/C (compound 3.16 µM): 101% and 95% and 92.8%
- viability, T/C (compound 10 µM): 82.5% and 76.4% and 72.9%

- IC50 [1]: 66.2 nM
- IC50 [2]: 49.3 nM
- IC50 [3]: 43.9 nM
- IC50 [4]: 49.5 nM
- IC50 [5]: 67 nM
SMILES: NC(=O)C(=Cn1cnc(-c2cc(C(F)(F)F)cc(C(F)(F)F)c2)n1)c1cncnc1 + CCN1C(C(=O)NC23CCC(C(=O)O)(CC2)CC3)C(c2cccc(Cl)c2F)C2(C(=O)Nc3cc(Cl)ccc32)C12CCCCC2
- viability, T/C (second compound 0.03 µM, first compound 0.000949 µM): 93.9%
- viability, T/C (second compound 0.03 µM, first compound 0.003 µM): 87.4%
- viability, T/C (second compound 0.03 µM, first compound 0.00949 µM): 79.4%
- viability, T/C (second compound 0.03 µM, first compound 0.03 µM): 77.8%
- viability, T/C (second compound 0.03 µM, first compound 0.0949 µM): 37.5%
- viability, T/C (second compound 0.03 µM, first compound 0.3 µM): 19.6%
- viability, T/C (second compound 0.0949 µM, first compound 0.000949 µM): 102%
- viability, T/C (second compound 0.0949 µM, first compound 0.003 µM): 90.5%
- viability, T/C (second compound 0.0949 µM, first compound 0.00949 µM): 78.6%
- viability, T/C (second compound 0.0949 µM, first compound 0.03 µM): 61.3%
- viability, T/C (second compound 0.0949 µM, first compound 0.0949 µM): 35.8%
- viability, T/C (second compound 0.0949 µM, first compound 0.3 µM): 14%
- viability, T/C (second compound 0.3 µM, first compound 0.000949 µM): 90.1%
- viability, T/C (second compound 0.3 µM, first compound 0.003 µM): 102%
- viability, T/C (second compound 0.3 µM, first compound 0.00949 µM): 83%
- viability, T/C (second compound 0.3 µM, first compound 0.03 µM): 53.1%
- viability, T/C (second compound 0.3 µM, first compound 0.0949 µM): 39.3%
- viability, T/C (second compound 0.3 µM, first compound 0.3 µM): 17.5%
- viability, T/C (second compound 0.949 µM, first compound 0.000949 µM): 96.5%
- viability, T/C (second compound 0.949 µM, first compound 0.003 µM): 87.4%
- viability, T/C (second compound 0.949 µM, first compound 0.00949 µM): 96.1%
- viability, T/C (second compound 0.949 µM, first compound 0.03 µM): 64.2%
- viability, T/C (second compound 0.949 µM, first compound 0.0949 µM): 31.6%
- viability, T/C (second compound 0.949 µM, first compound 0.3 µM): 21%
- viability, T/C (second compound 3 µM, first compound 0.000949 µM): 102%
- viability, T/C (second compound 3 µM, first compound 0.003 µM): 99.3%
- viability, T/C (second compound 3 µM, first compound 0.00949 µM): 87.7%
- viability, T/C (second compound 3 µM, first compound 0.03 µM): 70.2%
- viability, T/C (second compound 3 µM, first compound 0.0949 µM): 41.1%
- viability, T/C (second compound 3 µM, first compound 0.3 µM): 19.6%
